Each block holds one compound with its values, some of them ahead of it.
Legend:
[1] = system: HeLa cell line; test: Anti-proliferative activity in HeLa cells (MTT assay); type: cell-based; conditions: HeLa cell line; for IC50: Homo sapiens
Description: Particularly, HeLa cell line (ATCC, USA) was treated with the compounds of Table 1 respectively, and then IC50 (the half maximal inhibitory concentration) was investigated (Table 1).
HeLa cells were treated with 100 nM, 250 nM, 500 nM and 1 μM of ethyl(2-methyl-3{(E)-[(naphtho[2,1-b]furan-2-ylcarbonyl)hydrazono]methyl}-1H-indole-1-yl)acetate or DMSO for 4 days. Then, the cell growth was confirmed by MTT assay. All the obtained numbers were calculated by normalizing the value of Day 0. The data presents the mean value obtained from the assay performed in triplicate.
Particularly, HeLa cells were distributed in a 96-well plate at the density of 2×10^3 cells/well. The cells were treated with DMSO or the compound of the present invention, to which MTT reagent was added at the concentration of 10 μl/well. 2 hours later, OD450 was measured, which became the value of Day 0. 4 days later, MTT reagent was added thereto again. 2 hours later, OD450 was measured. The data presents the mean value obtained from the assay performed in triplicate.

[2] = system: MCF7; test: Cytotoxicity MTT assay, MCF7; type: cell-based; conditions: Homo sapiens, 96 h, 4 days
Description: (§1) Particularly, K562, MCF7 (Bio-Evaluation Center, Korea Research Institute of Bioscience and Biotechnology, Korea), and the multi-drug resistant cell lines thereof, K562/ADR and MCF7/ADR (Bio-Evaluation Center, Korea Research Institute of Bioscience and Biotechnology, Korea) were cultured in microtiter plate (1-3×10^3 cells/well). Then, the cells were treated with ethyl(2-methyl-3{(E)-[(naphtho[2,1-b]furan-2-ylcarbonyl)hydrazono]methyl}-1H-indole-1-yl)acetate, doxorubicin, or taxol, followed by culture for 4 days. Cytotoxicity was investigated by MTT assay by the same manner as described in Example <1-2>. IC50 was calculated by long-dose response curve. The data presents the mean value obtained from the assay performed in triplicate (Table 3).

[3] = system: K562/ADR; test: Cytotoxicity MTT assay, multi-drug resistant K562/ADR; type: cell-based; conditions: for IC50: Homo sapiens, 96 h, K562/ADR, MTT, 4 days; for resistance factor (number in the bracket): ratio of IC50 of K562/ADR to IC50 of parent K562
Description: as §1
(§2) The resistance factor of the multi-drug resistant cell line indicates the ratio of IC50 of the multi-drug resistant cell line to IC50 of the parent cell line showing no resistance, which was presented as a number in the bracket.

[4] = system: K562; test: Cytotoxicity MTT assay, K562; type: cell-based; conditions: Homo sapiens, 96 h, 4 days
Description: as §1

[5] = system: MCF7/ADR; test: Cytotoxicity MTT assay, multi-drug resistant MCF7/ADR; type: cell-based; conditions: for IC50: Homo sapiens, NCI/ADR-RES, 96 h, MCF7/ADR, MTT, 4 days; for resistance factor (number in the bracket): ratio of IC50 of MCF7/ADR to IC50 of parent MCF7
Description: as §1, §2

[6] = system: HeLa cells; test: Immunofluorescence of intracellular microtubules and chromosomes; type: cell-based; conditions: 17 hours, Taxol 100 μM, nocodazole 200 ng/ml, compound 5 μM
Description: To investigate the effect of ethyl(2-methyl-3{(E)-[(naphtho[2,1-b]furan-2-ylcarbonyl)hydrazono]methyl}-1H-indole-1-yl)acetate on intracellular microtubules, HeLa cells were treated with DMSO, Taxol (100 μM), nocodazole (200 ng/ml), or ethyl(2-methyl-3{(E)-[(naphtho[2,1-b]furan-2-ylcarbonyl)hydrazono]methyl}-1H-indole-1-yl)acetate (5 μM) for 17 hours. After fixing the cells, the cells were immuno-stained with Alexa Fluor 488-conjugated anti-tubulin antibody and Hoechst 33342 to confirm α-tubulin and chromosomes.

[7] = system: FVB/N mouse induced with skin tumor; test: DMBA/TPA induced skin tumor model; type: in vivo
Description: In this invention, the male FVB/N mice (6-7 weeks, Jackson Laboratory, USA) were raised under the condition of 12 hr bright lighting/12 hr dim lighting at the temperature of 24±2° C. with the humidity of 50±10% with water and feed provided freely. The care and process of the test animal was reviewed and approved by Institutional Animal Care and Use Committee (IACUC), Korea Research Institute of Bioscience and Biotechnology (KRIBB). DMBA (7,12-dimethylbenz[α]anthracene), TPA (12-O-tetradecanoylphorbol-13-acetate) and cholchicine were purchased from Sigma-Aldrich, and the synthesized ethyl(2-methyl-3{(E)-[(naphtho[2,1-b]furan-2-ylcarbonyl)hydrazono]methyl}-1H-indole-1-yl)acetate was provided from Dr. Thimmegowda.
Particularly, the dorsal skin of the said FVB/N mouse was shaved two days before the experiment. 100 μg of DMBA was added to 0.2 ml of acetone, which was treated to the mouse by single-local administration for 1 week to induce tumor. 5 fig of TPA was added to 0.2 ml of acetone, which was treated to the above mouse induced with tumor […] for 15 weeks to grow the tumor. 500 nM of ethyl(2-methyl-3{(E)-[(naphtho[2,1-b]furan-2-ylcarbonyl)hydrazono]methyl}-1H-indole-1-yl)acetate or cholchicine was dissolved in 0.2 ml of acetone, which was treated to the above mouse locally for 30 minutes each time for 15 weeks. Each group was composed of at least 10 mice and total 4 groups were prepared:
Group 1: DMBA and acetone treated group (negative control)
Group 2: DMBA and TPA treated group (positive control)
Group 3: DMBA/TPA and cholchicine treated group (experimental group 1)
Group 4: DMBA/TPA and ethyl(2-methyl-3{(E)-[(naphtho[2,1-b]furan-2-ylcarbonyl)hydrazono]methyl}-1H-indole-1-yl)acetate treated group (experimental group 2).
In addition, skin tumor such as papilloma was checked every week during the whole period of experiment. The tumor in the size of at least 2 mm was judged as positive. 15 weeks later, the mice were sacrificed with CO2. The skin tumor was extracted for histopathological/biochemical analysis.
The average number and the volume of tumor in each group were calculated.
Each mouse group was treated with different materials by the same manner as described in Example <8-2>, followed by observation for 15 weeks, and then the number of mice having skin tumor was counted. Tumor development rate was presented as %.
The mouse induced with skin tumor by the same manner as described in Example <8-2> was treated with DMBA, and then the induced tumors were observed and weighed for 15 weeks to produce the average weight of tumor.

IC50 [1]: 0.44 µM
Compound: Cc1c(/C=N/NC(=O)c2cc3c(ccc4ccccc43)o2)c2ccccc2n1C [A]
decrease of anti-proliferative activity compared with STK899704 [1]: two times decreased

IC50 [1]: 1.96 µM
Compound: C=CCn1c(C)c(/C=N/NC(=O)c2cc3c(ccc4ccccc43)o2)c2ccccc21 [B, (E)-N′-((1-allyl-2-methyl-1H-indol-3-yl)methylene)naphtho[2,1-b]furan-2-carbohydrazide]

IC50 [1]: 2.61 µM
Compound: Cc1c(/C=N/NC(=O)c2cc3c(ccc4ccccc43)o2)c2ccccc2n1CC#N [C, (E)-N′-((1-(cyanomethyl)-2-methyl-1H-indol-3-yl)methylene)naphtho[2,1-b]furan-2-carbohydrazide]

IC50 [1]: 2.88 µM
Compound: O=C(N/N=C/c1ccc(-c2ccc([N+](=O)[O-])cc2)o1)c1cc2c(ccc3ccccc32)o1 [Compound F, (E)-N′-((5-(4-nitrophenyl)furan-2-yl)methylene)naphtho[2,1-b]furan-2-carbohydrazide]

IC50 [1]: 2.24 µM
Compound: O=C(N/N=C/c1ccc(-c2ccc(Br)cc2)o1)c1cc2c(ccc3ccccc32)o1 [D]

Compound: COc1cccc2c1C(=O)c1c(O)c3c(c(O)c1C2=O)C[C@@](O)(C(=O)CO)C[C@@H]3O[C@H]1C[C@H](N)[C@H](O)[C@H](C)O1 [Doxorubicin]
IC50 [2]: 53 µM
IC50 [3]: 3800 µM
resistance factor (number in the bracket) [3]: 1153
IC50 [4]: 3.3 µM
IC50 [5]: 5230 µM
resistance factor (number in the bracket) [5]: 98

IC50 [1]: 2.61 µM
Compound: O=C(N/N=C/c1ccc(-c2cccc(Cl)c2Cl)o1)c1cc2c(ccc3ccccc32)o1 [E]

IC50 [1]: 3.11 µM
Compound: Cc1ccc(-c2ccc(/C=N/NC(=O)c3cc4c(ccc5ccccc54)o3)o2)cc1[N+](=O)[O-] [G, (E)-N′-((5-(4-methyl-3-nitrophenyl)furan-2-yl)methylene)naphtho[2,1-b]furan-2-carbohydrazide]

IC50 [1]: 5.4 µM
Compound: O=C(N/N=C/c1ccc([N+](=O)[O-])o1)c1cc2c(ccc3ccccc32)o1 [H, (E)-N′-((5-nitrofuran-2-yl)methylene)naphtho[2,1-b]furan-2-carbohydrazide]

IC50 [1]: 3.67 µM
Compound: O=C(N/N=C/c1ccc(OCc2ccccc2)cc1)c1cc2c(ccc3ccccc32)o1 [I, (E)-N′-(4-(benzyloxy)benzylidene)naphtho[2,1-b]furan-2-carbohydrazide]

IC50 [1]: 3.97 µM
Compound: COc1cccc(/C=N/NC(=O)c2cc3c(ccc4ccccc43)o2)c1O [J, (E)-N′-(2-hydroxy-3-methoxybenzylidene)naphtho[2,1-b]furan-2-carbohydrazide]

Compound: CC(=O)O[C@H]1C(=O)[C@@]2(C)[C@H]([C@H](OC(=O)c3ccccc3)[C@]3(O)C[C@H](OC(=O)[C@H](O)[C@@H](NC(=O)c4ccccc4)c4ccccc4)C(C)=C1C3(C)C)[C@]1(OC(C)=O)CO[C@@H]1C[C@@H]2O [Taxol]
effect on microtubules and chromosomes (immunostaining) [6]: strengthened the polymerization of tubulin so that multi-polar spindle fibers with condensed chromosomes were produced
IC50 [2]: 4.3 µM
IC50 [3]: 1820 µM
resistance factor (number in the bracket) [3]: 911
IC50 [4]: 2 µM
IC50 [5]: 1620 µM
resistance factor (number in the bracket) [5]: 377

Compound: COc1cc2c(c(OC)c1OC)-c1ccc(OC)c(=O)cc1[C@@H](NC(C)=O)CC2 [cholchicine, reference compound]
number of skin tumor ([7]; 500 nM in 0.2 ml acetone, local, 15 weeks): significantly reduced
weight of tumor compared with positive control ([7]; 15 weeks): significantly lighter
average volume of skin tumor reduced compared with positive control ([7]; 15 weeks, 500 nM local): 31.5%
decrease of average number of skin tumor compared with positive control ([7]; 15 weeks, 500 nM local): 2.86 times
week to which tumor formation was postponed ([7]; tumor of at least 2 mm, positive control from 8th week): 9 week

Compound: COC(=O)Nc1nc2ccc(C(=O)c3cccs3)cc2[nH]1 [nocodazole, reference compound]
effect on microtubules and chromosomes (immunostaining) [6]: chromosomes were not fully condensed and microtubules were destroyed

Source: patent US9433607B2, “Composition for prevention or treatment of cancer comprising N-methylenenaphtho[2,1-b]furan-2-carbohydrazide derivatives as an active ingredient” (KOREA RESEARCH INSTITUTE OF BIOSCIENCE AND BIOTECHNOLOGY, priority 2012, dated 2016)
